Where “and” joins values, the source holds several entries; their conditions need not be identical. Equal values may be shown once.
How the values were obtained:
∆pyr K. oxytoca = test: RNA-seq of compound-supplemented ∆pyr K. oxytoca; format: cell-based, Klebsiella oxytoca ATCC 8724; conditions: 10 µM
Procedure: A ∆pyr K. oxytoca glycerol stock was streaked onto an LB-Agar plate supplemented with spectinomycin (50 µg/mL) and incubated aerobically at 30°C for 24 h in a stationary incubator. Single colonies were grown for 24 h aerobically in 5 mL of M9 minimal medium supplemented with 5 g/L casamino acids and 0.4% D-galactose at 30 °C and 250 rpm. Each ∆pyr K. oxytoca overnight culture was diluted 1:1000 into fresh medium (5 mL) and incubated aerobically at 30 °C and 250 rpm to mid-exponential growth (OD600 = 0.8). These conditions abrogated both detectable pyrazine and pyrazinone production. At this point, 10 µM of compound in DMSO, were added to the cultures; an equal volume of DMSO was added to cultures without compound as a solvent vehicle control. The cultures were incubated under aerobic conditions with the compounds for one hour at 30 °C and at 250 rpm. After incubation, the cultures were centrifuged, the supernatants were decanted, and the cell pellets were quickly resuspended in 5 mL of Bacterial RNAProtect (Qiagen). The samples were centrifuged again, and the pellets were frozen on dry ice and stored at −80 °C until RNA extraction. The processed cell pellets were thawed on ice and resuspended in 200 µL of lysis buffer (10 mM Tris, 1 mM EDTA, 5 mg/mL lysozyme, 12.5 µg/mL proteinase K [pH 8.0]) and incubated at room temperature for 10 min. The RNA was extracted via the Qiagen RNeasy Mini kit, treated with TURBO DNase in a total volume of 100 µL at room temperature for 30 min, and extracted again using an RNeasy Mini kit. RNA-seq analysis was conducted by the Yale Center for Genome Analysis. Sequences were aligned to the K. oxytoca ATCC 8724 genome (NC_016612.1). Differential expression analysis was performed through DESeq2 and pathway enrichment analysis was performed through the Funage-Pro web-based platform.

HRH1 = target: T1, HRH1 (Homo sapiens, UniProt P35367); test: PRESTO-Tango GPCR screen and dose-response; format: cell-based; conditions: for HRH1 dose-response raw reporter signal (Fig. 5b source data): replicate wells
T1 construct: expressed in transfected cells; host or cells: HTLA cells (HEK293 line stably expressing β-arrestin-TEV and tTA-Luciferase)
T1 sequence (P35367 whole entry): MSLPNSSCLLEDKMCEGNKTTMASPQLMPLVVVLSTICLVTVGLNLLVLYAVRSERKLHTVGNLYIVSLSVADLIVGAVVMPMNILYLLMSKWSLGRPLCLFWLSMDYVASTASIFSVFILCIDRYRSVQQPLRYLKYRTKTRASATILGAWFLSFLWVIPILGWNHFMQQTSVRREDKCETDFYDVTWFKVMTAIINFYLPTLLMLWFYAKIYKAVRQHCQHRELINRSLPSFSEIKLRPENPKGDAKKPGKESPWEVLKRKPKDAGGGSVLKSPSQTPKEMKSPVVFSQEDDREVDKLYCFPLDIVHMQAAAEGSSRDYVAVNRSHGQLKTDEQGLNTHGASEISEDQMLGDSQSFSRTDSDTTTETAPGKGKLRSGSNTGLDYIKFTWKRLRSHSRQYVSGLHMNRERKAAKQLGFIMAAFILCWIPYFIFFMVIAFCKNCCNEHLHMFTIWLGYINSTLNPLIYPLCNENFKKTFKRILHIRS
Procedure: (§1) The PRESTO-Tango analyses were performed as previously published. Briefly, HTLA cells, a HEK293 cell line that stably expresses β-arrestin-TEV and tTA-Luciferase (a kind gift from Gilad Barnea, Brown University), were plated in 96-well tissue culture plates (Eppendorf) in DMEM containing 10% FBS and 1% Penicillin/Streptomycin. One day after plating (after reaching approximately 90% confluence), 200 ng per well GPCR-Tango plasmids[37] in 20 μL DMEM were individually mixed with 400 ng polyethylenimine (Polysciences) in an equal volume of DMEM and incubated for 20 min at room temperature before adding the transfection mixture to the HTLA cells. 16-24 h after transfection, medium was replaced with 180 μL fresh DMEM containing 1% Penicillin/Streptomycin and 10 mM HEPES and 20 μL of 3 or 3-Homo to reach a final concentration of 100 μM. Supernatants were aspirated 20 h after stimulation and 50 μl per well of Bright-Glo solution (Promega) diluted 20-fold with PBS containing 20 mM HEPES was added into each well. After 15 min incubation at room temperature, luminescence was quantified using a Spectramax i3x microplate reader (Molecular Devices). Activation fold for each sample was calculated by dividing relative luminescence units (RLU) for each condition by RLUs from PBS control. Dose response curves of each chemical were performed in a similar way with varying the ligand concentration from 10^−4 M to 10^−15 M.

HRH3 = target: T2, HRH3 (Homo sapiens, UniProt Q9Y5N1); test: PRESTO-Tango GPCR screen and dose-response; format: cell-based; conditions: for HRH3 dose-response raw reporter signal (Fig. 5b source data): replicate wells
T2 construct: expressed in transfected cells; host or cells: HTLA cells (HEK293 line stably expressing β-arrestin-TEV and tTA-Luciferase)
T2 sequence (Q9Y5N1 whole entry): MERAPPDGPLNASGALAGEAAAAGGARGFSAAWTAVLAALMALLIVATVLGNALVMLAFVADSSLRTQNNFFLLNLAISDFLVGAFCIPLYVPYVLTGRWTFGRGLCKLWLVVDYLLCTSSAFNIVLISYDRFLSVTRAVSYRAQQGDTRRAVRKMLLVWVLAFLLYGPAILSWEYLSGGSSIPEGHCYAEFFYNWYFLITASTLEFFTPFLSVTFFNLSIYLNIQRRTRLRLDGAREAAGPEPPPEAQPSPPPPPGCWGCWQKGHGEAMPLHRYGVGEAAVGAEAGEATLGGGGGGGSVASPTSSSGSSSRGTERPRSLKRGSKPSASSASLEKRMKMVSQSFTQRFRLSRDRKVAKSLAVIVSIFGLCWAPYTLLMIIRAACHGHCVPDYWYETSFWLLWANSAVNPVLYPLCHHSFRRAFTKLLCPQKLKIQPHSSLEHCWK
Procedure: as §1

HRH2 = target: T3, HRH2 (Homo sapiens, UniProt P25021); test: PRESTO-Tango GPCR screen and dose-response; format: cell-based; conditions: for HRH2 dose-response raw reporter signal (Fig. 5b source data): replicate wells
T3 construct: expressed in transfected cells; host or cells: HTLA cells (HEK293 line stably expressing β-arrestin-TEV and tTA-Luciferase)
T3 sequence (P25021 whole entry): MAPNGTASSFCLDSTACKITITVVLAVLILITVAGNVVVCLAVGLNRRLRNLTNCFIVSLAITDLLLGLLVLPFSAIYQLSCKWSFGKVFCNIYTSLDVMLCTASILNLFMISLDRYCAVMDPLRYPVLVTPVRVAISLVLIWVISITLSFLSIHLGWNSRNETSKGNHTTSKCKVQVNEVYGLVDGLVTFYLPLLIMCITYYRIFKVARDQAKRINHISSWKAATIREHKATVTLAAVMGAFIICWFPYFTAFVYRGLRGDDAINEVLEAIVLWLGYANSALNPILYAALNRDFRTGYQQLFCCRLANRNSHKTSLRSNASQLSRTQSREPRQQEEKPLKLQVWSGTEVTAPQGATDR
Procedure: as §1

[1] = target: T4, histamine receptor H4 (HRH4) (Homo sapiens, UniProt Q9H3N8); test: PRESTO-Tango GPCR screen and dose-response; format: cell-based; conditions: for HRH4 dose-response raw reporter signal (Fig. 5b source data): replicate wells
T4 construct: expressed in transfected cells; host or cells: HTLA cells (HEK293 line stably expressing β-arrestin-TEV and tTA-Luciferase)
T4 sequence (Q9H3N8 whole entry): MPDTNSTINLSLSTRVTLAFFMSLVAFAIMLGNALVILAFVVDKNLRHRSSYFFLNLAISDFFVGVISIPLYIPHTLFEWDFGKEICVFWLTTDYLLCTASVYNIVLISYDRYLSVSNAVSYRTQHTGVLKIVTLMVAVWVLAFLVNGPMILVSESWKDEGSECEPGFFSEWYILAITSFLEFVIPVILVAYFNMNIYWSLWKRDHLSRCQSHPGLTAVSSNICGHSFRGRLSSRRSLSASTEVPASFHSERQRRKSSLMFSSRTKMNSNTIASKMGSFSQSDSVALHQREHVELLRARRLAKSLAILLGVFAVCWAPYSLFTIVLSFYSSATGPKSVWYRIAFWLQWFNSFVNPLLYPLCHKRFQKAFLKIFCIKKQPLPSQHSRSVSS
Procedure: as §1

[2] = tested on: leup operon (leupeptin BGC) promoter in K. oxytoca ATCC 8724; test: GFP-based transcriptional reporter for the leup operon; format: cell-based, Klebsiella oxytoca; conditions: carbohydrate screen, M9 + casamino acid + 0.4% indicated sugar, 30 °C, 24 h
Description: We previously examined a panel of 84 clinical K. oxytoca isolates (including recently renamed Klebsiella michiganensis isolates) for the presence of either the leup operon or npsB, an NRPS of the tilimycin/tilivalline gene cluster. […] While the roles of tilivalline and tilimycin in hemorrhagic colitis are well studied[8],[9], the operon for leupeptin biosynthesis is “silent” in K. oxytoca under typical laboratory culture conditions (i.e., leupeptin production is undetectable). Therefore, our study commenced by exploring growth conditions required to trigger leupeptin biosynthesis in K. oxytoca. To achieve this, we generated a green fluorescent protein (GFP)-based reporter system to monitor leup transcription in K. oxytoca ATCC 8724 (recently renamed as Klebsiella michiganensis (ATCC 8724), Fig. 1a). We utilized λ-red recombineering techniques[38] to replace the first biosynthetic gene (leupA) of the leupeptin BGC with a GFP-spectinomycin resistance cassette. […] Consequently, conditions that elicit transcription of the leupeptin BGC can be monitored by GFP fluorescence intensity.
5 mL of the leupeptin reporter strain was cultured aerobically in 10 g/L of LB (Becton Dickinson), yeast extract, GAM (HiMedia Laboratories), horse liver extract (HiMedia Laboratories), malt extract (VWR), meat extract (HiMedia Laboratories), YPD (Dot Scienticifc), brain heart infusion (Becton Dickinson), porcine mucin (Sigma-Aldrich, M1778), clostridial (Becton Dickinson), TSB (VWR), or casamino acid supplemented (5 g/L, VWR) M9 minimal salts (MP Biomedicals) at 30 °C for 24 h at 250 rpm. Cultures were lysed via sonication, centrifuged, and 150 µL of the supernatants were aliquoted into black well clear bottom 96 well plates. GFP fluorescence measurements were performed on a BioTek Synergy H1 plate reader with an excitation wavelength of 488 nm and an emission wavelength of 525 nm. For the carbohydrate screen, the leupeptin reporter strain was cultured in M9 minimal medium (MPbio) supplemented with casamino acid (5 g/L, VWR) and 0.4% indicated sugar aerobically at 30 °C for 24 h at 250 rpm.

Question: What does the source list for `O=C(O)CCc1nc(Cc2ccc(O)cc2)c(CCC(=O)O)nc1Cc1ccc(O)cc1` [compound 6]?
Answer: number of differentially regulated genes (∆pyr K. oxytoca; one hour, vs DMSO, Padj < 0.05, abs(log2FC) > 1): 201 genes; effect on enterobactin BGC transcription (∆pyr K. oxytoca; vs DMSO control, RNA-seq): increased enterobactin transcription levels; HRH1 dose-response raw reporter signal (Fig. 5b source data) (HRH1; Log(10)Conc (M) -4): 49886 and 44465; HRH1 dose-response raw reporter signal (Fig. 5b source data) (HRH1; Log(10)Conc (M) -5): 46746 and 44008; HRH1 dose-response raw reporter signal (Fig. 5b source data) (HRH1; Log(10)Conc (M) -6): 46048 and 46004; HRH1 dose-response raw reporter signal (Fig. 5b source data) (HRH1; Log(10)Conc (M) -7): 45284 and 44521; HRH1 dose-response raw reporter signal (Fig. 5b source data) (HRH1; Log(10)Conc (M) -8): 43675 and 43707; HRH1 dose-response raw reporter signal (Fig. 5b source data) (HRH1; Log(10)Conc (M) -9): 43412 and 43896; HRH1 dose-response raw reporter signal (Fig. 5b source data) (HRH1; Log(10)Conc (M) -10): 42790 and 43339; HRH1 dose-response raw reporter signal (Fig. 5b source data) (HRH1; Log(10)Conc (M) -11): 45349 and 45281; HRH1 dose-response raw reporter signal (Fig. 5b source data) (HRH1; Log(10)Conc (M) -12): 45812 and 46139; HRH1 dose-response raw reporter signal (Fig. 5b source data) (HRH1; Log(10)Conc (M) -13): 46567 and 45803; HRH1 dose-response raw reporter signal (Fig. 5b source data) (HRH1; Log(10)Conc (M) -14): 45579 and 46637; HRH1 dose-response raw reporter signal (Fig. 5b source data) (HRH1; Log(10)Conc (M) -15): 40874 and 41360; activity towards HRH1 (HRH1; PRESTO-Tango dose-response): no activity; HRH3 dose-response raw reporter signal (Fig. 5b source data) (HRH3; Log(10)Conc (M) -4): 162 and 59 and 171; HRH3 dose-response raw reporter signal (Fig. 5b source data) (HRH3; Log(10)Conc (M) -5): 94 and 85 and 156; HRH3 dose-response raw reporter signal (Fig. 5b source data) (HRH3; Log(10)Conc (M) -6): 136 and 91 and 133; HRH3 dose-response raw reporter signal (Fig. 5b source data) (HRH3; Log(10)Conc (M) -7): 124 and 91 and 106; HRH3 dose-response raw reporter signal (Fig. 5b source data) (HRH3; Log(10)Conc (M) -8): 133 and 85 and 109; HRH3 dose-response raw reporter signal (Fig. 5b source data) (HRH3; Log(10)Conc (M) -9): 165 and 142 and 209; HRH3 dose-response raw reporter signal (Fig. 5b source data) (HRH3; Log(10)Conc (M) -10): 200 and 100 and 109; HRH3 dose-response raw reporter signal (Fig. 5b source data) (HRH3; Log(10)Conc (M) -11): 133 and 100 and 147; HRH3 dose-response raw reporter signal (Fig. 5b source data) (HRH3; Log(10)Conc (M) -12): 115 (2×) and 142; HRH3 dose-response raw reporter signal (Fig. 5b source data) (HRH3; Log(10)Conc (M) -13): 139 and 91 and 133; HRH3 dose-response raw reporter signal (Fig. 5b source data) (HRH3; Log(10)Conc (M) -14): 127 and 83 and 121; HRH3 dose-response raw reporter signal (Fig. 5b source data) (HRH3; Log(10)Conc (M) -15): 112 and 91 and 62; activity towards HRH3 (HRH3; PRESTO-Tango dose-response): no activity; HRH2 dose-response raw reporter signal (Fig. 5b source data) (HRH2; Log(10)Conc (M) -4): 68 and 65 and 32; HRH2 dose-response raw reporter signal (Fig. 5b source data) (HRH2; Log(10)Conc (M) -5): 50 and 41 and 77; HRH2 dose-response raw reporter signal (Fig. 5b source data) (HRH2; Log(10)Conc (M) -6): 59 and 62 and 44; HRH2 dose-response raw reporter signal (Fig. 5b source data) (HRH2; Log(10)Conc (M) -7): 27 and 50 and 35; HRH2 dose-response raw reporter signal (Fig. 5b source data) (HRH2; Log(10)Conc (M) -8): 65 and 80 and 47; HRH2 dose-response raw reporter signal (Fig. 5b source data) (HRH2; Log(10)Conc (M) -9): 38 and 97 and 71; HRH2 dose-response raw reporter signal (Fig. 5b source data) (HRH2; Log(10)Conc (M) -10): 50 (2×) and 62; HRH2 dose-response raw reporter signal (Fig. 5b source data) (HRH2; Log(10)Conc (M) -11): 56 and 27 and 53; HRH2 dose-response raw reporter signal (Fig. 5b source data) (HRH2; Log(10)Conc (M) -12): 53 and 35 and 24; HRH2 dose-response raw reporter signal (Fig. 5b source data) (HRH2; Log(10)Conc (M) -13): 59 and 53 and 35; HRH2 dose-response raw reporter signal (Fig. 5b source data) (HRH2; Log(10)Conc (M) -14): 71 and 53 (2×); HRH2 dose-response raw reporter signal (Fig. 5b source data) (HRH2; Log(10)Conc (M) -15): 29 and 15 and 32; activity towards HRH2 (HRH2; PRESTO-Tango dose-response): no activity; HRH4 dose-response raw reporter signal (Fig. 5b source data) ([1]; Log(10)Conc (M) -5): 295 and 312; HRH4 dose-response raw reporter signal (Fig. 5b source data) ([1]; Log(10)Conc (M) -6): 348 and 448; HRH4 dose-response raw reporter signal (Fig. 5b source data) ([1]; Log(10)Conc (M) -7): 304 and 348; HRH4 dose-response raw reporter signal (Fig. 5b source data) ([1]; Log(10)Conc (M) -8): 271 and 366; HRH4 dose-response raw reporter signal (Fig. 5b source data) ([1]; Log(10)Conc (M) -9): 318 and 324; HRH4 dose-response raw reporter signal (Fig. 5b source data) ([1]; Log(10)Conc (M) -10): 271 and 230; HRH4 dose-response raw reporter signal (Fig. 5b source data) ([1]; Log(10)Conc (M) -11): 342 and 265; HRH4 dose-response raw reporter signal (Fig. 5b source data) ([1]; Log(10)Conc (M) -12): 298 and 248; HRH4 dose-response raw reporter signal (Fig. 5b source data) ([1]; Log(10)Conc (M) -13): 318 and 271; HRH4 dose-response raw reporter signal (Fig. 5b source data) ([1]; Log(10)Conc (M) -14): 374 and 307; HRH4 dose-response raw reporter signal (Fig. 5b source data) ([1]; Log(10)Conc (M) -15): 242 and 254; activity towards HRH4 ([1]; PRESTO-Tango dose-response): no activity

Question: How did the “GFP fluorescence, GFP Strain + Media” value ([2]; leup GFP reporter strain) turn out when `OC[C@H]1OC(O)[C@H](O)[C@@H](O)[C@@H]1O` (stereo partly shown) [Glucose] was run?
Answer: 9593 RFU

Question: What about the “GFP fluorescence, WT + Media” value ([2]; wildtype K. oxytoca without reporter (background)) of the same compound?
Answer: 8596 RFU

Source: paper PMC11480411, “Mucosal sugars delineate pyrazine vs pyrazinone autoinducer signaling in Klebsiella oxytoca” (Nature Communications, 2024)
